Series [1] relates to Shigella flexneri. As to the kind of experiment: In vitro antibacterial activity, agar dilution method (MIC). Format: cell-based. To be noted: 18 hours. Here is the method: According to the relevant operating procedures of the Clinical Laboratory Standards Institute (CLSI) in the United States, an antimicrobial susceptibility testing was conducted using the agar dilution method. A 1920 µg/mL stock solution was serially diluted twofold with sterile water to obtain dilutions of 960, 480, 240, 120, 60, 30, 15, 7.5, 3.75, 1.88, 0.94, 0.47 µg/mL, and 1 mL of the dilution was taken respectively from the dilutions with different concentrations and added to a Petri dish, to which 14 mL of melted MH agar medium was added and mixed thoroughly, and the final concentration of the drug in the petri dish is 128, 64, 32, 16, 8, 4, 2, 1, 0.5, 0.25, 0.12, 0.06, and 0.03 µ g/mL, respectively. The agar was allowed to solidify and set aside for later use.
The test bacteria were propagated in broth and adjusted to a turbidity of 0.5 McFarland (approximately 1-2 × 10^8 CFU/mL) using a turbidimeter before inoculation. The 0.5 McFarland bacterial solution was then diluted 10-fold in broth (approximately 1-2 × 10^7 CFU/mL). A multipoint inoculator was used to inoculate the above bacterial solution onto a series of plates containing different concentrations of drugs (with an inoculation amount of approximately 10^4 CFU per inoculation site). After incubation at a constant temperature of 35°C for 18 hours, results were observed. The minimum concentration of drugs contained in sterile growth plates was determined as the Minimal Inhibitory Concentration (MIC).

Series [2] has as its system Vero cells. The series can be described thus: Vero cytotoxicity (CCK-8). Type of series: cell-based. How it is done: All liquid was transferred to a 15 mL centrifuge tube and centrifuged at 800 rpm for 5 min. […] A cell counter was used to measure cell density. Cells were inoculated at 100 µL and a density of 3 × 10^5/mL into a 96-well plate, with 6 replicates per group, and incubated at 37°C for 4 hours to allow cells to adhere to the wall. The compound was twofold continuously diluted with PBS, and 10 µL of the compound with the corresponding concentration was added to the 96-well plate, and shaken and mixed well on a shaker, and then incubated at 37°C for 24 hours. 10 µL of CCK-8 reagent was added to the 96-well plate, mixed thoroughly on a shaker, and incubated at 37°C for 2 hours. A microplate reader was used to measure the absorbance at 450 nm wavelength, and the inhibition rate of the compound on Vero cells was calculated. Table 5 Vero cytotoxicity of 4 optical isomers and control drug

In series [3] the test system is ICR strain mice. The series can be described thus: Acute toxicity in mice, single tail vein injection. Conditions: one week. Format: in vivo. How it is done: Healthy ICR strain mice weighing 20-21 g were taken for the experiment, randomly divided into groups of 3 mice per group, regardless of gender. Each compound was administered via a single tail vein injection at a volume of 20 mL/kg. Animal responses were observed immediately postadministration and monitored for one week. The number of animal deaths was recorded and mortality rates calculated.

Setting [4] is: ATCC12022, Shigella flexneri ATCC 12022, 35°C, read-out: MIC.
Setting [5] is: Chlorocebus sabaeus, Vero, 24 h.
The mark [6] stands for this setting: Chlorocebus sabaeus, Vero cells, 24 hours incubation, CCK-8, read-out: IC50.

Converted amounts (≈) assume the structure as drawn. Where two headings read alike, the source gives them in different places. A value given as a limit tells only on which side of the number the result lay.

In the case of `COCC1CC1C#CC#Cc1ccc(C(=O)NC(C(=O)NO)C(C)(C)N)cc1` (mixture of isomers) [Ia/Ib racemate], in series [1] (Shigella flexneri ATCC 12022, 35°C), the MIC was 0.12 µg/mL. Further, the IC50 in series [2] (Vero cells, 24 hours incubation, CCK-8, read-out: IC50) was over 128 µM. In series [3] (dose 100 mg/kg), this molecule yielded a Mortality rate of 0% and a Number of deaths of 0 individuals. Besides, in series [3] (dose 150 mg/kg), the Mortality rate is recorded as 100% and the Number of deaths stood at 3 individuals.
For the molecule `CC(C)(N)[C@H](NC(=O)c1ccc(C#CC#C[C@@H]2C[C@H]2CO)cc1)C(=O)NO` [ACHN-975], the MIC in series [1] (setting [4]) stood at 0.12 µg/mL (≈ 0.325 µM). The same molecule displayed an IC50 in series [2] (setting [5]) of over 128 µM. The Mortality rate in series [3] (dose 50 mg/kg) stood at 0%; in series [3] (dose 100 mg/kg) it was 67%; in series [3] (dose 150 mg/kg), 100%. Besides, the Number of deaths in series [3] (dose 50 mg/kg) worked out at 0 individuals; in series [3] (dose 100 mg/kg) it was 2 individuals; in series [3] (dose 150 mg/kg) it was 3 individuals.
As for `CO[C@H]1CCC[C@@H]1C#CC#Cc1ccc(C(=O)N[C@H](C(=O)NO)C(C)(C)N)cc1` [A], the minimal inhibitory concentration (MIC) in series [1] (setting [4]) came to 0.25 µg/mL (≈ 0.629 µM). Also, the IC50 in series [2] (setting [6]) is over 64 µM. In addition, in series [3] (dose 150 mg/kg), the Mortality rate came to 0% and the Number of deaths is 0 individuals. Also, in series [3] (dose 200 mg/kg), the Mortality rate was found to be 100% and the Number of deaths is recorded as 3 individuals.
Turning to `COC[C@@H]1C[C@H]1C#CC#Cc1ccc(C(=O)N[C@H](C(=O)NO)C(C)(C)N)cc1` [Ia, N-(S)-3-amino-1-hydroxyamino-3-methyl-1-oxobutan-2-yl-4-[[(1R,2R)-2-(methoxymethylene)cyclopropyl]but-1,3-diynyl]benzamide], the MIC in series [1] (setting [4]) came to 0.06 µg/mL (≈ 0.156 µM). In addition, the concentration for half-maximal inhibition (IC50) in series [2] (setting [6]) was over 128 µM. In series [3] (dose 150 mg/kg), this molecule displayed a Mortality rate of 0% and a Number of deaths of 0 individuals. Also, in series [3] (dose 200 mg/kg), the Mortality rate is 100% and the Number of deaths amounted to 3 individuals.
`COC[C@H]1C[C@@H]1C#CC#Cc1ccc(C(=O)N[C@H](C(=O)NO)C(C)(C)N)cc1` [Ib, N-(S)-3-amino-1-hydroxyamino-3-methyl-1-oxobutan-2-yl-4-[[(1S,2S)-2-(methoxymethylene)cyclopropyl]but-1,3-diynyl]benzamide]: the minimal inhibitory concentration (MIC) in series [1] (setting [4]) was 0.12 µg/mL (≈ 0.313 µM). For the same molecule, the IC50 in series [2] (setting [5]) is over 128 µM. The Mortality rate in series [3] (dose 150 mg/kg) is 0%; in series [3] (dose 200 mg/kg) it was 100%. The Number of deaths is given as 0 individuals in series [3] (dose 150 mg/kg) and 3 individuals in series [3] (dose 200 mg/kg).
For `COC[C@H]1C[C@H]1C#CC#Cc1ccc(C(=O)N[C@H](C(=O)NO)C(C)(C)N)cc1` [Ic, N-(S)-3-amino-1-hydroxyamino-3-methyl-1-oxobutan-2-yl-4-[[(1R,2S)-2-(methoxymethylene)cyclopropyl]but-1,3-diynyl]benzamide], the MIC in series [1] (setting [4]) was 0.06 µg/mL (≈ 0.156 µM). The concentration for half-maximal inhibition (IC50) in series [2] (setting [6]) was over 128 µM. Moreover, the Mortality rate is recorded as 0% in series [3] (dose 100 mg/kg), 33% in series [3] (dose 150 mg/kg) and 100% in series [3] (dose 200 mg/kg). The Number of deaths in series [3] (dose 100 mg/kg) turned out to be 0 individuals; in series [3] (dose 150 mg/kg), 1 individuals; in series [3] (dose 200 mg/kg) it was 3 individuals.
`COC[C@@H]1C[C@@H]1C#CC#Cc1ccc(C(=O)N[C@H](C(=O)NO)C(C)(C)N)cc1` [Id, N-(S)-3-amino-1-hydroxyamino-3-methyl-1-oxobutan-2-yl-4-[[(1S,2R)-2-(methoxymethylene)cyclopropyl]but-1,3-diynyl]benzamide]: the MIC in series [1] (setting [4]) was 0.06 µg/mL (≈ 0.156 µM). For the same molecule, in series [2] (setting [6]), the IC50 is over 128 µM. For the same molecule, the values for the Mortality rate in series [3] (dose 100 mg/kg), in series [3] (dose 150 mg/kg) and in series [3] (dose 200 mg/kg) were 0%, 67% and 100%, respectively. Further, the figures for the Number of deaths in series [3] (dose 100 mg/kg), in series [3] (dose 150 mg/kg) and in series [3] (dose 200 mg/kg) were 0 individuals, 2 individuals and 3 individuals, respectively.

These data come from patent EP4745118A1, “HYDROXAMIC ACID COMPOUND OR PHARMACEUTICALLY ACCEPTABLE SALT THEREOF, AND USE THEREOF AND PREPARATION METHOD THEREFOR” (priority 2023, dated 2025).
